Results taken from the kinase profiling compilation of Christmann-Franck et al. (2016).

What was measured:
Assay in all cases: KINOMEscan competition binding
Settings in all cases: compound 0.5 µM
[1] = biological target: EPHA6 (human) (UniProt Q9UF33)
[2] = biological target: TAOK2 (human) (UniProt Q9UL54)
[3] = biological target: PRKG1 (human) (UniProt Q13976)
[4] = biological target: TEK (human) (UniProt Q02763)
[5] = biological target: PRKCQ (human) (UniProt Q04759)
[6] = biological target: WEE1 (human) (UniProt P30291)
[7] = biological target: MAPK7 (human) (UniProt Q13164)
[8] = biological target: RPS6KA6 KD1 (human) (UniProt Q9UK32)
[9] = biological target: GRK4 (human) (UniProt P32298)
[10] = biological target: ULK1 (human) (UniProt O75385)
[11] = system: EIF2AK4 KD2 (human), Q9P2K8 [S808G]
[12] = biological target: RPS6KA5 KD2 (human) (UniProt O75582)
[13] = system: PIK3CA (human), P42336 [Q546K]
[14] = biological target: PLK3 (human) (UniProt Q9H4B4)
[15] = biological target: NUAK1 (human) (UniProt O60285)
[16] = system: KIT (human), P10721 [V559D]
[17] = biological target: NTRK1 (human) (UniProt P04629)
[18] = biological target: STK33 (human) (UniProt Q9BYT3)
[19] = biological target: MAP3K9 (human) (UniProt P80192)
[20] = biological target: TGFBR2 (human) (UniProt P37173)
[21] = system: PIK3CA (human), P42336 [E542K]
[22] = biological target: MINK1 (human) (UniProt Q8N4C8)
[23] = biological target: CDK3 (human) (UniProt Q00526)
[24] = biological target: DYRK2 (human) (UniProt Q92630)
[25] = biological target: BMP2K (human) (UniProt Q9NSY1)
[26] = biological target: FES (human) (UniProt P07332)
[27] = biological target: FLT1 (human) (UniProt P17948)
[28] = biological target: STK10 (human) (UniProt O94804)
[29] = biological target: MAPK4 (human) (UniProt P31152)
[30] = biological target: MAPKAPK5 (human) (UniProt Q8IW41)
[31] = biological target: MAP3K13 (human) (UniProt O43283)
[32] = biological target: TAOK3 (human) (UniProt Q9H2K8)
[33] = biological target: CDK16 (human) (UniProt Q00536)
[34] = biological target: NEK4 (human) (UniProt P51957)
[35] = biological target: CDK4 CCND3 (human) (UniProt P11802+P30281)
[36] = biological target: TBK1 (human) (UniProt Q9UHD2)
[37] = biological target: CDC42BPA (human) (UniProt Q5VT25)
[38] = system: FLT3 (human), P36888 [K663Q]

MAPK7 (human), sequence (Q13164 whole entry, looked up): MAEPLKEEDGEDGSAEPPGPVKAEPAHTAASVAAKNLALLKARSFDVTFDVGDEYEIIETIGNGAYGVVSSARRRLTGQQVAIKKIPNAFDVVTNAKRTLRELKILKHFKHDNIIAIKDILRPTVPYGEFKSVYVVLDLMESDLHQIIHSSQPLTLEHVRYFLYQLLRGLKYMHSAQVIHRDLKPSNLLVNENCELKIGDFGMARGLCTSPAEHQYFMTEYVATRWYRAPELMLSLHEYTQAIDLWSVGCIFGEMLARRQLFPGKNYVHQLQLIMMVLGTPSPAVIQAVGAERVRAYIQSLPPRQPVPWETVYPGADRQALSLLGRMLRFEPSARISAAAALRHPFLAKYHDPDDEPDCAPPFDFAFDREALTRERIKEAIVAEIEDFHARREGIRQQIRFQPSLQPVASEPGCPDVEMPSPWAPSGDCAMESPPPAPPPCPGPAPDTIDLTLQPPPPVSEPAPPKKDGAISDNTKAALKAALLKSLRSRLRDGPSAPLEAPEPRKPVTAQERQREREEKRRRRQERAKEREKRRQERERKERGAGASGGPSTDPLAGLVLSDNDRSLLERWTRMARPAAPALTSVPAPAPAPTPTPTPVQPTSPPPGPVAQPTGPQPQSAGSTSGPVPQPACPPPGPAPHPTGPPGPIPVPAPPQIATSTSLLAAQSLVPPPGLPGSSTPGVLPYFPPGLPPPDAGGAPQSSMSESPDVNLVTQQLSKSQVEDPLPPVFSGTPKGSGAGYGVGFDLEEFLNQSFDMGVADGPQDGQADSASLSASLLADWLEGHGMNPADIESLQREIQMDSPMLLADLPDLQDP
EPHA6 (human), sequence (Q9UF33 whole entry, looked up): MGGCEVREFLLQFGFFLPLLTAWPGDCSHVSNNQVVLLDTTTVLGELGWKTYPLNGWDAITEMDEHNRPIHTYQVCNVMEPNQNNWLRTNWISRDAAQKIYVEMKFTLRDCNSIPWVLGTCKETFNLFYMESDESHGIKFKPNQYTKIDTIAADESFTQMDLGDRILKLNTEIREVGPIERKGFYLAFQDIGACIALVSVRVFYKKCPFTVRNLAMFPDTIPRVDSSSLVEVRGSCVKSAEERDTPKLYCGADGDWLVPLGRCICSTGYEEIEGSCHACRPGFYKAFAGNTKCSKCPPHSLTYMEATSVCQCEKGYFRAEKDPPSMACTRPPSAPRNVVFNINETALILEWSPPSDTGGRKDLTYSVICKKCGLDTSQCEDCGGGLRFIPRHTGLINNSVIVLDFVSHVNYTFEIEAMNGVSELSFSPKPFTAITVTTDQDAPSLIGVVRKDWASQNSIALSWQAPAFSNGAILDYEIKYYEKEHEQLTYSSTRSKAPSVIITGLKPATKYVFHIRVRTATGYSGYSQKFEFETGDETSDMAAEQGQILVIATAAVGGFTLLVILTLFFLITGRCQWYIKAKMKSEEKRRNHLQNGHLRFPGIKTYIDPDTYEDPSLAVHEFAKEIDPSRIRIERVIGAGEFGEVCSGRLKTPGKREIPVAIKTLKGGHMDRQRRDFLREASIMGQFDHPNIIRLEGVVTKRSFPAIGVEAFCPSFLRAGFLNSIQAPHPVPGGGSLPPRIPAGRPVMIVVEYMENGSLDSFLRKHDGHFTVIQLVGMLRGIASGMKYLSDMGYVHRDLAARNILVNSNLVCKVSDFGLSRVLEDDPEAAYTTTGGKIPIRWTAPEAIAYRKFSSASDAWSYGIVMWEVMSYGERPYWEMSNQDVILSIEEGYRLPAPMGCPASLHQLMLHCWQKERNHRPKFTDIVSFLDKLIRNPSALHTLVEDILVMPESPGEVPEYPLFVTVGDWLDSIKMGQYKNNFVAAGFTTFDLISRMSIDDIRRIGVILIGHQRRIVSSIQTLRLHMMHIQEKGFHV
STK10 (human), sequence (O94804 whole entry, looked up): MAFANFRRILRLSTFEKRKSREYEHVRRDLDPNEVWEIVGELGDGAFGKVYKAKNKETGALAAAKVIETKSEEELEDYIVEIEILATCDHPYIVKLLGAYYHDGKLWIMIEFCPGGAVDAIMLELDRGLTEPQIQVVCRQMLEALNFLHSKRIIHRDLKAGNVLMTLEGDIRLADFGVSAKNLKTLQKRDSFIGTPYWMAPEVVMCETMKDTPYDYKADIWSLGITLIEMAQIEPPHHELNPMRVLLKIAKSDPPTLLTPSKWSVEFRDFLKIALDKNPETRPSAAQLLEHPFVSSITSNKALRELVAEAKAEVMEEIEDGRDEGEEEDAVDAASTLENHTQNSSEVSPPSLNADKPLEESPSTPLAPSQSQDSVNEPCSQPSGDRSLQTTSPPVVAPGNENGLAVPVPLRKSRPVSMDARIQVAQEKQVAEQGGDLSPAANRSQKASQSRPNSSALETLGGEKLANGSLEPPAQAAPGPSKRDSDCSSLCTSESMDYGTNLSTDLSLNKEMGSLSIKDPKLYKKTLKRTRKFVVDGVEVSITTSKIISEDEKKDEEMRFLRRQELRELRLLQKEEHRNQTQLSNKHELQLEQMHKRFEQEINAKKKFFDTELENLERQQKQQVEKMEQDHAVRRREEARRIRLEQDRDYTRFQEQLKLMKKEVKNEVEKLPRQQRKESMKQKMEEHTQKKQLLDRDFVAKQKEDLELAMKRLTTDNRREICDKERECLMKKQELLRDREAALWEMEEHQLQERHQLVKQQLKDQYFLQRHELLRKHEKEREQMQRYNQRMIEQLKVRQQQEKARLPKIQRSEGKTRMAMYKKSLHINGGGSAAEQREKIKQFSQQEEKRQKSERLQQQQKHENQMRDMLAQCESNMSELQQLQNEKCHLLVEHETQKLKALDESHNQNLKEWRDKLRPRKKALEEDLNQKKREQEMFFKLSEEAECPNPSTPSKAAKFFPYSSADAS
EIF2AK4 KD2 (human), Q9P2K8 [S808G], sequence (Q9P2K8 whole entry S808G, looked up): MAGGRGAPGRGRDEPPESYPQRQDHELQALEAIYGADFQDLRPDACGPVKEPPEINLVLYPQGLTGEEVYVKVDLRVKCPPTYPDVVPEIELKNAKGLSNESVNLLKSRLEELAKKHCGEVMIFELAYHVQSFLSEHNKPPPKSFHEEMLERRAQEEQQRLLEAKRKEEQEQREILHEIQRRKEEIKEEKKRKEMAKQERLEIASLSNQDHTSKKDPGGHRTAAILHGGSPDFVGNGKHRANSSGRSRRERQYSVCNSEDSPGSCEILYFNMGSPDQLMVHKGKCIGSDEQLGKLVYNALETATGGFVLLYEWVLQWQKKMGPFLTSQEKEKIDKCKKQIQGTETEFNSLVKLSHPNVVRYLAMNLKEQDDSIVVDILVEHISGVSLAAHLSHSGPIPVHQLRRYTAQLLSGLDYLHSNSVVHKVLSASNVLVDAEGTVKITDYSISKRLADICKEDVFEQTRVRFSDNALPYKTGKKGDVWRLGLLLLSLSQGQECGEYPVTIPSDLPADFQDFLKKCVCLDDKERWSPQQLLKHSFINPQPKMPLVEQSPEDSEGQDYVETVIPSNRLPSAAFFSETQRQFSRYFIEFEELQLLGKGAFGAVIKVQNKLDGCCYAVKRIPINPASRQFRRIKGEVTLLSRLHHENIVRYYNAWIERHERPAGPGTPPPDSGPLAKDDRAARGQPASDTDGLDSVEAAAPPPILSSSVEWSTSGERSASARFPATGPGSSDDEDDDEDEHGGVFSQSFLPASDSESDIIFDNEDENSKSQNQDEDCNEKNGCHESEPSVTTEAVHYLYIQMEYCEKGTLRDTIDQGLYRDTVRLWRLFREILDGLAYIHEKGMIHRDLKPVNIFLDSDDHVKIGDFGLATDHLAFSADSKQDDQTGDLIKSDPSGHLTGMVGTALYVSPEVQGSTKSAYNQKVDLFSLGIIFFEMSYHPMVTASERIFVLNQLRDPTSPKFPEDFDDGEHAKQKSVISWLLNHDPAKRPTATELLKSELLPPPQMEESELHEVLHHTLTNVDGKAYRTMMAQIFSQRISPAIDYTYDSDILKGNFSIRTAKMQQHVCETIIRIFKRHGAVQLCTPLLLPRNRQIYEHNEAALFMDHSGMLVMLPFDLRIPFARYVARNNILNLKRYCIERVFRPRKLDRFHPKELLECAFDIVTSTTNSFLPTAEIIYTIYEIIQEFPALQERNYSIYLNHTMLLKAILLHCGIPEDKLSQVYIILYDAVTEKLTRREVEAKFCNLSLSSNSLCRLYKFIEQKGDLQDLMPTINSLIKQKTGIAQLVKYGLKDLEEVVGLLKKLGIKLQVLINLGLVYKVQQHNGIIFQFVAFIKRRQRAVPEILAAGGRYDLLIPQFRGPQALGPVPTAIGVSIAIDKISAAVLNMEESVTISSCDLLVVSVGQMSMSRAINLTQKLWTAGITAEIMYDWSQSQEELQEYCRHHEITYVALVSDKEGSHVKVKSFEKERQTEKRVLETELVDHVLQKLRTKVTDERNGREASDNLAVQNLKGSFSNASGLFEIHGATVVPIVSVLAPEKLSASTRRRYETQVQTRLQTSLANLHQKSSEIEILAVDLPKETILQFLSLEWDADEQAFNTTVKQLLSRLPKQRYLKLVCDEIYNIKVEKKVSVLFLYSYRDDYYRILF
DYRK2 (human), sequence (Q92630 whole entry, looked up): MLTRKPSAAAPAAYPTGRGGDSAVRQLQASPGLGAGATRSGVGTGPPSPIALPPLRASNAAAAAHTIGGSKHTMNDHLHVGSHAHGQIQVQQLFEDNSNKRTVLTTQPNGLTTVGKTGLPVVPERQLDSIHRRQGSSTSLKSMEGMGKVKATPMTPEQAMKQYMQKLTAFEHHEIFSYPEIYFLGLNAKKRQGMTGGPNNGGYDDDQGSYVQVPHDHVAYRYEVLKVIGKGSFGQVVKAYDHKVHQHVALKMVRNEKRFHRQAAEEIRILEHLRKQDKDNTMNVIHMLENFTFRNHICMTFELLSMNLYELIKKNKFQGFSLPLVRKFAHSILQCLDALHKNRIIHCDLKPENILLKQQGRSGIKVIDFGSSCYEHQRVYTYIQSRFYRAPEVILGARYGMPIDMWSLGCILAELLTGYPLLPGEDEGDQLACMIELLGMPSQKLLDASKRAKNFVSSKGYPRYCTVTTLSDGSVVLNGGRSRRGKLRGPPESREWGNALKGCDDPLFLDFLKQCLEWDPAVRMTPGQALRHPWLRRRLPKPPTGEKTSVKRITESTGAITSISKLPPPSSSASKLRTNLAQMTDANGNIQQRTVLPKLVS

Cn1c2ccccc2c2c3c(c4c5ccccc5n(CCC#N)c4c21)CNC3=O
kinase still bound, per cent of control [1]: 86%
kinase still bound, per cent of control [2]: 7.7%
kinase still bound, per cent of control [3]: 67%
kinase still bound, per cent of control [4]: 99%
kinase still bound, per cent of control [5]: 59%
kinase still bound, per cent of control [6]: 100%
kinase still bound, per cent of control [7]: 0.1%
kinase still bound, per cent of control [8]: 4.7%
kinase still bound, per cent of control [9]: 3%
kinase still bound, per cent of control [10]: 92%
kinase still bound, per cent of control [11]: 77%
kinase still bound, per cent of control [12]: 71%
kinase still bound, per cent of control [13]: 100%
kinase still bound, per cent of control [14]: 100%
kinase still bound, per cent of control [15]: 89%
kinase still bound, per cent of control [16]: 71%
kinase still bound, per cent of control [17]: 0.1%
kinase still bound, per cent of control [18]: 1.5%
kinase still bound, per cent of control [19]: 0.65%
kinase still bound, per cent of control [20]: 100%
kinase still bound, per cent of control [21]: 100%
kinase still bound, per cent of control [22]: 1%
kinase still bound, per cent of control [23]: 75%
kinase still bound, per cent of control [24]: 37%
kinase still bound, per cent of control [25]: 3.4%
kinase still bound, per cent of control [26]: 85%
kinase still bound, per cent of control [27]: 95%
kinase still bound, per cent of control [28]: 28%
kinase still bound, per cent of control [29]: 100%
kinase still bound, per cent of control [30]: 100%
kinase still bound, per cent of control [31]: 33%
kinase still bound, per cent of control [32]: 12%
kinase still bound, per cent of control [33]: 93%
kinase still bound, per cent of control [34]: 100%
kinase still bound, per cent of control [35]: 42%
kinase still bound, per cent of control [36]: 92%
kinase still bound, per cent of control [37]: 94%
kinase still bound, per cent of control [38]: 0.95%
